How the values were obtained:
[1] = tested on: radiation-induced pulmonary fibrosis; assay: Inhibitory effect on radiation-induced pulmonary fibrosis in mice (Micro-CT, H&E and Masson's Trichrome staining); assay type: in vivo, C57BL/6 mice; details: 2 weeks after radiation exposure (SBRT 90 Gy), oral, nintedanib 60 mg/kg once daily, vs untreated group
Procedure: One hour before stereotactic body radiation therapy (SBRT; 90 Gy, 4 mm collimator), DCTP and nintedanib, an FDA-approved drug known to inhibit pulmonary fibrosis, were orally administered to seven-week-old male C57BL/6 mice. The degree of pulmonary fibrosis and the inhibitory effect on radiation-induced lung injury were observed two weeks after radiation exposure. The DCTP drug was administered at a dose of 30 mg/kg, and nintedanib was administered once daily (o.d.) at a dose of 60 mg/kg. In addition, to analyze the degree of inflammatory response and the degree of fibrosis two weeks after radiation exposure, H&E staining and Masson's Trichrome staining were performed, and the results are shown in FIG. 5. One hour prior to stereotactic body radiation therapy (SBRT; 90 Gy, 4 mm collimator), PXDP and nintedanib, an FDA-approved drug known to inhibit pulmonary fibrosis, were orally administered to seven-week-old male C57BL/6 mice. The degree of pulmonary fibrosis and the inhibitory effect on radiation-induced lung injury were observed two weeks after radiation exposure. The PXDP drug was administered at a dose of 100 mg/kg, and nintedanib was administered once daily (o.d.) at a dose of 60 mg/kg. To analyze the degree of inflammatory response and the degree of fibrosis 2 weeks after radiation exposure, H&E staining and Masson's Trichrome staining were performed, and the results are shown in FIG. 11.

[2] = tested on: idiopathic pulmonary fibrosis induced by bleomycin; assay: Inhibitory effect on idiopathic pulmonary fibrosis induced by bleomycin in mice (Micro-CT, H&E and Masson's Trichrome staining, survival); assay type: in vivo, C57BL/6 mice; details: oral once daily for two weeks from day 14, nintedanib 60 mg/kg, vs untreated group; for degree of fibrosis (Micro-CT imaging): 4 weeks after bleomycin 1.5 U/kg; for degree of inflammation and fibrosis (H&E and Masson's Trichrome staining) / survival rate: bleomycin 1.5 U/kg; for survival rate: Example 5, FIG. 9
Procedure: Each drug was administered starting 14 days after the administration of bleomycin. The drug was orally administered at a dose of 20 mg/kg once daily for two weeks (a total of 13 administrations). The control drug, nintedanib, was administered at a dose of 60 mg/kg, and the co-administration group was orally administered nintedanib (60 mg/kg) together with DCTP (20 mg/kg) once daily for two weeks (a total of 13 administrations).
The results of H&E and Masson's Trichrome staining performed to evaluate the degree of inflammation and fibrosis are shown in FIG. 3.
Each drug was administered starting 14 days after the administration of bleomycin. Nintedanib and PXDP were each orally administered at a dose of 60 mg/kg once daily for two weeks (a total of 13 administrations), and the group treated with the combination was orally administered nintedanib (60 mg/kg) together with PXDP (60 mg/kg) once daily for two weeks (a total of 13 administrations).
The results of H&E and Masson's Trichrome staining performed to evaluate the degree of inflammation and fibrosis are shown in FIG. 8.
In addition, the mouse survival rate was compared in FIG. 9.

[3] = Example 3, FIG. 5, DCTP 30 mg/kg
[4] = Example 6, FIG. 10, PXDP 100 mg/kg
[5] = Example 6, FIG. 11, PXDP 100 mg/kg
[6] = Example 5, FIG. 7, PXDP 60 mg/kg
[7] = Example 5, FIG. 8, PXDP 60 mg/kg

Structure (SMILES) | degree of inflammation and degree of fibrosis (H&E and Masson's Trichrome staining) [1, 3] | degree of fibrosis (Micro-CT imaging) [1, 4] | degree of fibrosis (Micro-CT imaging) ([1]; Example 6, FIG. 10, PXDP 100 mg/kg, listed as PXPD) | degree of inflammation and degree of fibrosis (H&E and Masson's Trichrome staining) [1, 5] | degree of fibrosis (Micro-CT imaging) [2, 6] | degree of inflammation and fibrosis (H&E and Masson's Trichrome staining) [2, 7] | survival rate ([2]; PXDP 60 mg/kg) | degree of fibrosis (Micro-CT imaging) ([1]; Example 3, FIG. 4, DCTP 30 mg/kg) | degree of fibrosis (Micro-CT imaging) ([2]; Example 2, FIG. 2, DCTP 20 mg/kg) | degree of inflammation and fibrosis (H&E and Masson's Trichrome staining) ([2]; Example 2, FIG. 3, DCTP 20 mg/kg)
COc1cc2ncnc(N(C(=O)OCCN3CCN(C)CC3)c3ccc(F)c(Cl)c3)c2cc1NC(=O)/C=C/CN1CCCCC1 [DCTP, 2-(4-methylpiperazin-1-yl)ethyl (E)-(3-chloro-4-fluorophenyl)(7-methoxy-6-(4-(piperidin-1-yl)but-2-enamido)quinazolin-4-yl)carbamate] | reduction in fibrosis and inflammation in the lungs |  |  |  |  |  |  |  |  | 
CN1CCN(CCOC(=O)N(Cc2ccc(C(F)(F)F)nc2)c2ccc(Cc3c[nH]c4ncc(Cl)cc34)cn2)CC1 [PXDP, 2-(4-methylpiperazin-1-yl)ethyl (5-((5-chloro-1H-pyrrolo[2,3-b]pyridin-3-yl)methyl)pyridin-2-yl)((6-(trifluoromethyl)pyridin-3-yl)methyl)carbamate] |  | reduction in the degree of fibrosis | superior to that of nintedanib | alleviation of fibrosis and inflammation in the lungs | reduction in the degree of fibrosis | alleviation of pulmonary fibrosis and inflammation | survival rate increased |  |  | 
COC(=O)c1ccc2c(c1)NC(=O)/C2=C(\Nc1ccc(N(C)C(=O)CN2CCN(C)CC2)cc1)c1ccccc1 [nintedanib] | reduction in fibrosis and inflammation in the lungs | reduction in the degree of fibrosis |  | alleviation of fibrosis and inflammation in the lungs | reduction in the degree of fibrosis | alleviation of pulmonary fibrosis and inflammation | survival rate increased | reduction in the degree of fibrosis | reduction in the degree of fibrosis | alleviation of pulmonary fibrosis and inflammation

Reference: patent publication EP4707275A1, “NOVEL COMPOUND COMPRISING N-METHYLPIPERAZINE ETHANOL CARBAMATE STRUCTURE AND USE THEREOF” (Korea Institute of Radiological & Medical Sciences, priority 2023, dated 2024)
